Test results taken from ChEMBL document CHEMBL2073982, “Bumetanide is not transported by the Ntcp or by the oatp: evidence for a third organic anion transporter in rat liver cells” (Biochim Biophys Acta, 1996).

Target: T1, Solute carrier organic anion transporter family member 1A1 (Rattus norvegicus, UniProt P46720)
T1 sequence (P46720 whole entry): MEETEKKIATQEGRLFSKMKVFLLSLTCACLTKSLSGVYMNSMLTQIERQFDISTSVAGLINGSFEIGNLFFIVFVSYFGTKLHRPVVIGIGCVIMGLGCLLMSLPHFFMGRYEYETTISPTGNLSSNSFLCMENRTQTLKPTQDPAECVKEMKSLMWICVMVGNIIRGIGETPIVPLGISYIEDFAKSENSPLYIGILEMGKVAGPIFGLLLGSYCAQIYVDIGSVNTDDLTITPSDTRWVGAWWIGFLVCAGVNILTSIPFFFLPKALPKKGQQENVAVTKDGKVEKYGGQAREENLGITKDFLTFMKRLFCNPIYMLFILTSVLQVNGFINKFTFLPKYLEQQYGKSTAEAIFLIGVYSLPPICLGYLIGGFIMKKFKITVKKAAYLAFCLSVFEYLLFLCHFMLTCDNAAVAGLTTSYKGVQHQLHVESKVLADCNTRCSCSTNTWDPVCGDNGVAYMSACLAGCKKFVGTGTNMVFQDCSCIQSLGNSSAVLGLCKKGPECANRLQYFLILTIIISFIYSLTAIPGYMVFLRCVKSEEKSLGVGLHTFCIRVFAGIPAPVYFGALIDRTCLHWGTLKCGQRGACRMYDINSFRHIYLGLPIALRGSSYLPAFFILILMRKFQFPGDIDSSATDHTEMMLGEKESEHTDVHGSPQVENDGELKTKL
Assay: TP_TRANSPORTER: uptake in Xenopus laevis oocytes
Format: functional, cell-based
Conditions: oocyte

Structure (SMILES): CCCCNc1cc(C(=O)O)cc(S(N)(=O)=O)c1Oc1ccccc1 [BUMETANIDE]
- Activity: is not a substrate [-]
